PubChem BioAssay (NCI)
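Five compound concentrations were applied to cells in 96-well plates for 48 hours; endpoints were derived by simple linear interpolation of the resulting dose-response curve. Definition used: TGI = concentration required for complete inhibition of growth.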

Experiments:
Assay in all cases: growth of human tumour cells (NCI), 48 h
HCC-2998 colon = tested on: HCC-2998 colon
MCF7 breast = tested on: MCF7 breast
LOX IMVI melanoma = tested on: LOX IMVI melanoma
HL-60(TB) leukemia = tested on: HL-60(TB) leukemia
DU-145 prostate = tested on: DU-145 prostate
UACC-257 melanoma = tested on: UACC-257 melanoma
CCRF-CEM leukemia = tested on: CCRF-CEM leukemia
MALME-3M melanoma = tested on: MALME-3M melanoma
BT-549 breast = tested on: BT-549 breast
NCI-H23 lung = tested on: NCI-H23 lung
OVCAR-4 ovarian = tested on: OVCAR-4 ovarian
SR leukemia = tested on: SR leukemia
NCI-H522 lung = tested on: NCI-H522 lung
SF-295 CNS = tested on: SF-295 CNS
OVCAR-8 ovarian = tested on: OVCAR-8 ovarian
M14 melanoma = tested on: M14 melanoma
SNB-75 CNS = tested on: SNB-75 CNS
UO-31 renal = tested on: UO-31 renal
NCI-H226 lung = tested on: NCI-H226 lung

| Compound | TGI (HCC-2998 colon) [µM] | TGI (MCF7 breast) [µM] | TGI (LOX IMVI melanoma) [µM] | TGI (HL-60(TB) leukemia) [µM] | TGI (DU-145 prostate) [µM] | TGI (UACC-257 melanoma) [µM] | TGI (CCRF-CEM leukemia) [µM] | TGI (MALME-3M melanoma) [µM] | TGI (BT-549 breast) [µM] | TGI (NCI-H23 lung) [µM] | TGI (OVCAR-4 ovarian) [µM] | TGI (SR leukemia) [µM] | TGI (NCI-H522 lung) [µM] | TGI (SF-295 CNS) [µM] | TGI (OVCAR-8 ovarian) [µM] | TGI (M14 melanoma) [µM] | TGI (SNB-75 CNS) [µM] | TGI (UO-31 renal) [µM] | TGI (NCI-H226 lung) [µM] |
| --- | --- | --- | --- | --- | --- | --- | --- | --- | --- | --- | --- | --- | --- | --- | --- | --- | --- | --- | --- |
| O=C(Nc1ccc(F)cc1)c1cc2ccc(O)cc2oc1=Nc1cccc(F)c1 | > 100 | > 100 | 52.6 | 83 | > 100 | > 100 | 71.8 | > 100 | 75.4 | 55.7 | > 100 | > 100 | 97.5 | > 100 | 41.6 | – | – | – | – |
| Nc1nc(Cl)cc(NCC2(CO)CCC(OCc3ccccc3)C2)n1 (stereo not given) | – | 89.1 | 46.4 | 86.8 | > 100 | 45.1 | > 100 | 97.2 | 80.1 | 43.8 | 65.2 | 80.2 | 37.9 | > 100 | > 100 | 61 | 53.4 | 99.4 | 84.1 |
| Cc1ccc2nc(Cl)c(/C=N/N3C(=O)/C(=C/Cc4ccco4)N=C3c3ccccc3)cc2c1 | 75.8 | > 93.9 | > 69.3 | 55.9 | > 79.5 | 71.8 | > 100 | > 100 | > 90.9 | > 84.5 | > 100 | > 100 | 74 | > 100 | > 68.2 | 73.9 | > 92.8 | > 74.7 | > 100 |
| O=c1[nH][nH]c(=S)c(=O)[nH]1 | – | > 100 | > 100 | > 100 | > 100 | > 100 | > 100 | > 100 | > 100 | > 100 | > 100 | > 100 | > 100 | > 100 | > 100 | > 100 | > 100 | > 100 | > 100 |
| CC(=O)O[C@H]1C(=O)[C@@]2(C)[C@H]([C@H](OC(=O)c3ccncc3)[C@]3(O)C[C@H](OC(=O)[C@H](O)[C@@H](NC(=O)c4ccccc4)c4ccccc4)C(C)=C1C3(C)C)[C@]1(OC(C)=O)CO[C@@H]1C[C@@H]2O | 11 | > 25 | > 25 | 1.63 | > 25 | > 25 | 10.7 | > 25 | > 25 | > 25 | > 25 | > 25 | 10.2 | > 25 | > 25 | > 25 | > 18.1 | > 25 | > 25 |
| COc1cc(C2c3cc4c(cc3OC(O)C2C)OCO4)cc(OC)c1O (stereo not given) | 49.5 | > 100 | > 100 | 20.2 | > 100 | > 100 | > 100 | 29.4 | > 100 | > 100 | > 100 | > 100 | 13.3 | 33.9 | > 100 | > 60 | 26 | > 96.5 | 64.3 |
| CC1CC(=O)NC2CC1C2(C)C (stereo not given) | > 100 | > 100 | > 100 | > 100 | > 100 | > 100 | > 100 | > 100 | > 100 | > 100 | > 100 | > 100 | > 100 | > 100 | > 100 | > 100 | > 100 | > 100 | > 100 |
| COc1cc(CNC(=O)CCCCCCCCCCSSCCCCCCCCCCC(=O)NCc2ccc(O)c(OC)c2)ccc1O | > 10 | > 10 | > 10 | > 10 | > 10 | > 10 | > 10 | > 10 | > 10 | > 10 | > 10 | > 10 | > 10 | > 10 | > 10 | > 10 | > 10 | – | > 10 |
| CC(=O)OCC(OC(C)=O)C(OC(C)=O)C(OC(C)=O)C(/C=N\Nc1nc2ccccc2c(=O)[nH]1)OC(C)=O (stereo not given) | > 100 | > 100 | > 100 | > 100 | > 100 | > 100 | > 100 | > 100 | > 100 | > 100 | – | > 100 | > 100 | > 100 | > 100 | > 100 | > 100 | > 100 | > 100 |
| N=C(N)c1ccc(-c2ccc(-c3ccc(C(=N)N)cc3)o2)cc1 | – | > 100 | – | > 100 | > 100 | 87.2 | > 100 | > 100 | > 100 | 87 | > 100 | > 100 | > 100 | > 100 | > 100 | > 100 | > 100 | 68.1 | > 100 |
